Source: publication PMC3486420, “In Vitro and In Vivo Characterizations of Chiglitazar, a Newly Identified PPAR Pan-Agonist” (PPAR Research, 2012)

Key:
PPARγ = biological target: T1, PPARγ (Homo sapiens, UniProt P37231); assay: PPARγ transactivation reporter gene assay in SMMC-7721 cells; format: cell-based; conditions: SMMC-7721 cells
T1 construct: expressed in transfected cells; host or cells: SMMC-7721 or U2OS
T1 sequence (P37231 1-505): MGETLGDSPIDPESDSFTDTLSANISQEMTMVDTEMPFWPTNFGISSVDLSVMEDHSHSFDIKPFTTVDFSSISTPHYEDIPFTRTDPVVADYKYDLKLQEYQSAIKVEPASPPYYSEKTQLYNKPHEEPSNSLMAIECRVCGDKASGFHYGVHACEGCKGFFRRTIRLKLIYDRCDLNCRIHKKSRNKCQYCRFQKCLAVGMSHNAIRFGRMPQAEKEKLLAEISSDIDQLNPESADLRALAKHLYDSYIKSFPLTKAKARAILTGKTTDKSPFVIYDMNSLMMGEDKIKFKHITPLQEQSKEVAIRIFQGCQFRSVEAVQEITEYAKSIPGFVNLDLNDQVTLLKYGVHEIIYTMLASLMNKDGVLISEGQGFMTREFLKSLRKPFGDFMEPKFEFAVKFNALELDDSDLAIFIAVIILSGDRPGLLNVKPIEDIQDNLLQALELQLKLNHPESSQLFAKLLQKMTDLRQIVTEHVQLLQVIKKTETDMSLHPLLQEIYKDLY
T1 sequence (P19793 1-462 partner): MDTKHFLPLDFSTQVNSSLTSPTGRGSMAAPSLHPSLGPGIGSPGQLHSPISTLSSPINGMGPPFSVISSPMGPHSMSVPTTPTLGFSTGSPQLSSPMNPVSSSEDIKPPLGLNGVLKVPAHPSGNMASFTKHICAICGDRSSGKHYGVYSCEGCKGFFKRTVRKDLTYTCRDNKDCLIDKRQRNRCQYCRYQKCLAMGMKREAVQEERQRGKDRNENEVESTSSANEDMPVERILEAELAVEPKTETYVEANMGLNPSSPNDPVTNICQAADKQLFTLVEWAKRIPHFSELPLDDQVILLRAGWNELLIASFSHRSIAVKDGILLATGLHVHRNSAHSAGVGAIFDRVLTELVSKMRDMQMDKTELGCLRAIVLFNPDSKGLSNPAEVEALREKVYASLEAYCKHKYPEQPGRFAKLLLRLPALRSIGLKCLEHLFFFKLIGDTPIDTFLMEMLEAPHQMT

PPARδ = biological target: T2, PPARδ (Homo sapiens, UniProt Q03181); assay: PPARδ transactivation reporter gene assay in SMMC-7721 cells; format: cell-based; conditions: SMMC-7721 cells
T2 construct: expressed in transfected cells; host or cells: SMMC-7721 or U2OS
T2 sequence (Q03181 1-441): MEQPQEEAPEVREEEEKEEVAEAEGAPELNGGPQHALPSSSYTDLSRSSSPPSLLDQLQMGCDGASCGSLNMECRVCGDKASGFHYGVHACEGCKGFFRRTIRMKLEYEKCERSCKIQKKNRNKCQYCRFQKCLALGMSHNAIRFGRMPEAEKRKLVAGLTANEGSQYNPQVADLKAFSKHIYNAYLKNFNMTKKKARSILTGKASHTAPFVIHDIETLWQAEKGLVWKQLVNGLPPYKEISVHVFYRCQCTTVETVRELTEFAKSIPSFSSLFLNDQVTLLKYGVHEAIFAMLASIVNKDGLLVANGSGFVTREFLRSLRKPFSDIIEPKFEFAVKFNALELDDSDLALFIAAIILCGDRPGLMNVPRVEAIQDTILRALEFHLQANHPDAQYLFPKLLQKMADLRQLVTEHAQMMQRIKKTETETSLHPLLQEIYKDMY
T2 sequence (P19793 1-462 partner): T1 sequence (P19793 1-462 partner)

db/db mice = assay: Oral treatment of diabetic db/db mice (glucose, insulin, IPGTT, body and fat pad weight); format: in vivo, mouse
Text: Male db/db mice (BKS.Cg-m +/+ LEPR^db) in 6-7 weeks were purchased from The Jackson Laboratory (Bar Harbor, ME, USA). Male KKAy and C57BL/6J mice in 8–10 weeks were obtained from the Institute of Animal Science, Chinese Academy of Medical Sciences and Peking Union Medical College (Beijing, China). Animals were randomly sorted into different treatment groups (8–10 per group). […] Plasma glucose levels were examined at various time points by Accu-Chek Advantage II Glucose Strips (Roche Diagnostics, Basel, Switzerland) and measured by Accu-Chek Advantage (Roche Diagnostics). Animals were sacrificed 24 h after the last dosing and abdominal fat pad, liver, and skeletal muscle from KKAy mice and abdominal fat pad from db/db mice were taken for gene expression analysis.
For intraperitoneal glucose tolerance test (IPGTT), db/db mice dosed for 14 days were fasted overnight, followed by an intraperitoneal injection of glucose (2 g kg^−1). Blood samples were taken for measurement of plasma glucose before and 30, 60, and 120 min after the glucose load. The area under curves (AUC) was calculated to evaluate the IPGTT results. To determine plasma insulin concentrations, blood samples were taken from db/db mice dosed with different reagents or vehicle for 0, 3, 6, and 9 d, and insulin levels were measured by Insulin ELISA Kit (Roche Diagnostics) following the instructions from the manufacture.
Figure 2 In vivo effects on blood glucose control and insulin sensitization of chiglitazar. Male db/db (a, c and d) and male KKAy mice (b) were treated with vehicle (Ctrl), rosiglitazone (Ros), or chiglitazar (Chi) at the indicated doses for various days. Plasma glucose (a and b) and insulin (c) levels were measured at the indicated time points. […] Data are expressed as mean ± SE.
Figure 4 Influence in body and abdominal fat pad weights of chiglitazar. […] Changes in body weight were evaluated at the indicated days (b), and the fat pads were weighed from the scarified animals at day 15 (c). ^# P < 0.05 compared with day 0, and *P < 0.05 compared with Ctrl. n = 8 per group for KKAy, and n = 10 per group for db/db. Data are expressed as mean ± SE.

`O=C(c1ccc(F)cc1)c1ccccc1NC(Cc1ccc(OCCn2c3ccccc3c3ccccc32)cc1)C(=O)O` (stereo not drawn) [Chi, 2-[(2-(4-fluorobenzoyl)phenyl)amino]-3-[4-(2-carbazolylethoxy)-phenyl]-propionic acid] was tested, and the EC50 (PPARγ; 24 h treatment, luciferase reporter, hRXR cotransfected, ia: inactive at 10 μM, read-out: PPARγ EC50) was 90 ± 20 nM, the “PPARγ % Max” value (PPARγ; max response compared with Ros at 1 μM) was 105% and the EC50 (PPARδ; 24 h treatment, luciferase reporter, hRXR cotransfected, ia: inactive at 10 μM, read-out: PPARδ EC50) was 1700 ± 400 nM. For the same compound, the “PPARδ % Max” value (PPARδ; max response compared with 2-Bro at 10 μM) was 123%, the “Glucose tolerance (IPGTT)” value (db/db mice; db/db mice, 20 mg kg^−1 oral daily, 14 days) was “increased” and the Body weight (db/db mice; db/db mice, 5, 10 and 20 mg kg^−1 oral daily, 14 days) was “dose-dependent weight gain”. For the same compound, the “Abdominal fat pad weights” value (db/db mice; db/db mice, chiglitazar 20 mg kg^−1 vs rosiglitazone 5 mg kg^−1, 14 days) was “less increase”, the “BG (blood glucose) levels” value (db/db mice; db/db mice, oral daily, 5 to 20 mg kg^−1, 14 days) was “significantly lowered” and the Plasma insulin concentrations (db/db mice; db/db mice, oral daily, different doses, compared with vehicle control) was “markedly decreased”.
